Measurements reported in EP4553080A1, “NUCLEOSIDE DERIVATIVES AS ANTIVIRAL AGENTS AGAINST CORONAVIRUSES” (Ustav Organicke Chemie a Biochemie AV CR, v.v.i., priority 2023, dated 2025).

Molecular target: nsp14 methyltransferase from SARS-CoV-2 (Severe acute respiratory syndrome coronavirus 2, UniProt P0DTD1)
Experiment: Nsp14 MTase activity inhibition in vitro (EchoMS assay)
Type: biochemical
Conditions: recombinant nsp14 protein expressed in E. coli; dose-response curve

Row | SMILES | IC50
1 | Cc1noc(-c2ccccc2)c1CSC[C@H]1O[C@@H](n2cc(CCc3ccccc3)c3c(N)ncnc32)[C@H](O)[C@@H]1O [Compound 184, (2R,3R,4S,5S)-2-(4-Amino-5-phenethyl-7H-pyrrolo[2,3-d]pyrimidin-7-yl)-5-((((3-methyl-5-phenylisoxazol-4-yl)methyl)thio)methyl)tetrahydrofuran-3,4-diol] | 100 to 500 nM
2 | Cc1noc(-c2ccccc2)c1CSC[C@H]1O[C@@H](n2cc(C#Cc3cnc4ccccc4c3)c3c(N)ncnc32)[C@H](O)[C@@H]1O [Compound 176b, (2R,3R,4S,5S)-2-(4-Amino-5-(quinolin-3-ylethynyl)-7H-pyrrolo[2,3-d]pyrimidin-7-yl)-5-((((3-methyl-5-phenylisoxazol-4-yl)methyl)thio)methyl)tetrahydrofuran-3,4-diol] | 100 to 500 nM
3 | Cc1noc(-c2ccccc2)c1CSC[C@H]1O[C@@H](n2ccc3c(N)ncnc32)[C@H](O)[C@@H]1O [Compound 47c, (2R,3R,4S,5S)-2-(4-Amino-7H-pyrrolo[2,3-d]pyrimidin-7-yl)-5-((((3-methyl-5-phenylisoxazol-4-yl)methyl)thio)methyl)tetrahydrofuran-3,4-diol] | 30 to 100 nM
4 | Cc1noc(-c2ccc(N)cc2)c1CSC[C@H]1O[C@@H](n2cc(-c3ccc(C#N)cc3)c3c(N)ncnc32)[C@H](O)[C@@H]1O [Compound 234b, 4-(4-Amino-7-((2R,3R,4S,5S)-5-((((5-(4-aminophenyl)-3-methylisoxazol-4-yl)methyl)thio)methyl)-3,4-dihydroxytetrahydrofuran-2-yl)-7H-pyrrolo[2,3-d]pyrimidin-5-yl)benzonitrile] | 10 to 30 nM
5 | C=Cc1cn([C@@H]2O[C@H](CSCc3c(C)noc3-c3ccccc3)[C@@H](O)[C@H]2O)c2ncnc(N)c12 [Compound 139b, (2R,3R,4S,5S)-2-(4-Amino-5-vinyl-7H-pyrrolo[2,3-d]pyrimidin-7-yl)-5-((((3-methyl-5-phenylisoxazol-4-yl)methyl)thio)methyl)tetrahydrofuran-3,4-diol] | 500 to 2000 nM
6 | COc1ncnc(-c2ccccc2)c1CSC[C@H]1O[C@@H](n2ccc3c(N)ncnc32)[C@H](O)[C@@H]1O [Compound 110c, (2R,3R,4S,5S)-2-(4-Amino-7H-pyrrolo[2,3-d]pyrimidin-7-yl)-5-((((4-methoxy-6-phenylpyrimidin-5-yl)methyl)thio)methyl)tetrahydrofuran-3,4-diol] | 500 to 2000 nM
7 | Cc1noc(-c2ccccc2)c1CSC[C@H]1O[C@@H](n2nc(-c3cccc(C(N)=O)c3)c3c(N)ncnc32)[C@H](O)[C@@H]1O [Compound 221b, 3-(4-Amino-1-((2R,3R,4S,5S)-3,4-dihydroxy-5-((((3-methyl-5-phenylisoxazol-4-yl)methyl)thio)methyl)tetrahydrofuran-2-yl)-1H-pyrazolo[3,4-d]pyrimidin-3-yl)benzamide] | 30 to 100 nM
8 | Cc1noc(-c2ccccc2)c1CSC[C@H]1O[C@@H](n2cc(I)c3c(N)ncnc32)[C@H](O)[C@@H]1O [Compound 123, (2R,3R,4S,5S)-2-(4-Amino-5-iodo-7H-pyrrolo[2,3-d]pyrimidin-7-yl)-5-((((3-methyl-5-phenylisoxazol-4-yl)methyl)thio)methyl)tetrahydrofuran-3,4-diol] | 30 to 100 nM
9 | Cc1noc(-c2ccccc2)c1CSC[C@H]1O[C@@H](n2cc(C3CCCCC3)c3c(N)ncnc32)[C@H](O)[C@@H]1O [Compound 134b, (2R,3R,4S,5S)-2-(4-Amino-5-cyclohexyl-7H-pyrrolo[2,3-d]pyrimidin-7-yl)-5-((((3-methyl-5-phenylisoxazol-4-yl)methyl)thio)methyl)tetrahydrofuran-3,4-diol] | 100 to 500 nM
10 | Cc1ccc(-c2onc(C)c2CSC[C@H]2O[C@@H](n3cc(C#Cc4cncnc4)c4c(N)ncnc43)[C@H](O)[C@@H]2O)cc1C [Compound 242c, (2R,3R,4S,5S)-2-(4-Amino-5-(pyrimidin-5-ylethynyl)-7H-pyrrolo[2,3-d]pyrimidin-7-yl)-5-((((5-(3,4-dimethylphenyl)-3-methylisoxazol-4-yl)methyl)thio)methyl)tetrahydrofuran-3,4-diol] | 10 to 30 nM
11 | Cc1nc(N)c2ccn([C@@H]3O[C@H](CSCc4c(C)noc4-c4ccccc4)[C@@H](O)[C@H]3O)c2n1 [Compound 208, (2R,3R,4S,5S)-2-(4-Amino-2-methyl-7H-pyrrolo[2,3-d]pyrimidin-7-yl)-5-((((3-methyl-5-phenylisoxazol-4-yl)methyl)thio)methyl)tetrahydrofuran-3,4-diol] | 30 to 100 nM
12 | Cc1noc(C2CCCCC2)c1CSC[C@H]1O[C@@H](n2ccc3c(N)ncnc32)[C@H](O)[C@@H]1O [Compound 98c, (2R,3R,4S,5S)-2-(4-Amino-7H-pyrrolo[2,3-d]pyrimidin-7-yl)-5-((((5-cyclohexyl-3-methylisoxazol-4-yl)methyl)thio)methyl)tetrahydrofuran-3,4-diol] | 500 to 2000 nM
13 | Cc1ncnc(-c2ccccc2)c1CSC[C@H]1O[C@@H](n2cc(-c3ccc(C#N)cc3)c3c(N)ncnc32)[C@H](O)[C@@H]1O [Compound 232b, 4-(4-Amino-7-((2R,3R,4S,5S)-3,4-dihydroxy-5-((((4-methyl-6-phenylpyrimidin-5-yl)methyl)thio)methyl)tetrahydrofuran-2-yl)-7H-pyrrolo[2,3-d]pyrimidin-5-yl)benzonitrile] | 30 to 100 nM
14 | Cc1ncc(-c2cn([C@@H]3O[C@H](CSCc4c(C)noc4-c4ccccc4)[C@@H](O)[C@H]3O)c3ncnc(N)c23)s1 [Compound 156, (2R,3R,4S,5S)-2-(4-Amino-5-(2-methylthiazol-5-yl)-7H-pyrrolo[2,3-d]pyrimidin-7-yl)-5-((((3-methyl-5-phenylisoxazol-4-yl)methyl)thio)methyl)tetrahydrofuran-3,4-diol] | 10 to 30 nM
15 | Cc1noc(-c2ccccc2)c1CSC[C@H]1O[C@@H](n2cc(-c3ccc4ccccc4c3)c3c(N)ncnc32)[C@H](O)[C@@H]1O [Compound 148b, (2R,3R,4S,5S)-2-(4-Amino-5-(naphthalen-2-yl)-7H-pyrrolo[2,3-d]pyrimidin-7-yl)-5-((((3-methyl-5-phenylisoxazol-4-yl)methyl)thio)methyl)tetrahydrofuran-3,4-diol] | 100 to 500 nM
16 | Cc1noc(-c2ccccc2)c1CSC[C@H]1O[C@@H](n2cc(-c3ccc(C(F)(F)F)cc3)c3c(N)ncnc32)[C@H](O)[C@@H]1O [Compound 145b] | 100 to 500 nM
17 | Cc1noc(-c2ccccc2)c1CSC[C@H]1O[C@@H](n2cc(C#Cc3ccccn3)c3c(N)ncnc32)[C@H](O)[C@@H]1O [Compound 171b, (2R,3R,4S,5S)-2-(4-Amino-5-(pyridin-2-ylethynyl)-7H-pyrrolo[2,3-d]pyrimidin-7-yl)-5-((((3-methyl-5-phenylisoxazol-4-yl)methyl)thio)methyl)tetrahydrofuran-3,4-diol] | 10 to 30 nM
18 | Cc1ncnc(-c2ccccc2)c1CSC[C@H]1O[C@@H](n2cc(I)c3c(N)ncnc32)[C@H](O)[C@@H]1O [Compound 246, (2R,3R,4S,5S)-2-(4-Amino-5-iodo-7H-pyrrolo[2,3-d]pyrimidin-7-yl)-5-((((4-methyl-6-phenylpyrimidin-5-yl)methyl)thio)methyl)tetrahydrofuran-3,4-diol] | 10 to 30 nM
19 | Cc1noc(-c2ccccc2)c1CSC[C@H]1O[C@@H](n2cc(C#N)c3c(N)ncnc32)[C@H](O)[C@@H]1O [Compound 138b, 4-Amino-7-((2R,3R,4S,5S)-3,4-dihydroxy-5-((((3-methyl-5-phenylisoxazol-4-yl)methyl)thio)methyl)tetrahydrofuran-2-yl)-7H-pyrrolo[2,3-d]pyrimidine-5-carbonitrile] | 30 to 100 nM
20 | COc1ccc(-c2cn([C@@H]3O[C@H](CSCc4c(C)noc4-c4ccccc4)[C@@H](O)[C@H]3O)c3ncnc(N)c23)cc1OC [Compound 147b] | 10 to 30 nM
21 | Cc1noc(-c2ccccc2)c1CSC[C@H]1O[C@@H](n2cc(-c3ccc(C#N)cc3)c3c(N)ncnc32)[C@H](O)[C@@H]1O [Compound 143b, 4-(4-Amino-7-((2R,3R,4S,5S)-3,4-dihydroxy-5-((((3-methyl-5-phenylisoxazol-4-yl)methyl)thio)methyl)tetrahydrofuran-2-yl)-7H-pyrrolo[2,3-d]pyrimidin-5-yl)benzonitrile] | 10 to 30 nM
22 | Cn1cnc(-c2ccccc2)c1CSC[C@H]1O[C@@H](n2cc(I)c3c(N)ncnc32)[C@H](O)[C@@H]1O [Compound 244, (2R,3R,4S,5S)-2-(4-Amino-5-iodo-7H-pyrrolo[2,3-d]pyrimidin-7-yl)-5-((((1-methyl-4-phenyl-1H-imidazol-5-yl)methyl)thio)methyl)tetrahydrofuran-3,4-diol] | 10 to 30 nM
23 | Cc1noc(-c2ccccc2)c1CSC[C@H]1O[C@@H](n2cc(SCc3ccccc3)c3c(N)ncnc32)[C@H](O)[C@@H]1O [Compound 190b, (2R,3R,4S,5S)-2-(4-Amino-5-(benzylthio)-7H-pyrrolo[2,3-d]pyrimidin-7-yl)-5-((((3-methyl-5-phenylisoxazol-4-yl)methyl)thio)methyl)tetrahydrofuran-3,4-diol] | 100 to 500 nM
24 | Cc1cccc(-c2ccccc2)c1CSC[C@H]1O[C@@H](n2ccc3c(N)ncnc32)[C@H](O)[C@@H]1O [Compound 58c, (2R,3R,4S,5S)-2-(4-Amino-7H-pyrrolo[2,3-d]pyrimidin-7-yl)-5-((((3-methyl-[1,1'-biphenyl]-2-yl)methyl)thio)methyl)tetrahydrofuran-3,4-diol] | 500 to 2000 nM
25 | Cc1noc(-c2ccccc2)c1CSC[C@H]1O[C@@H](n2cc(CCc3cncnc3)c3c(N)ncnc32)[C@H](O)[C@@H]1O [Compound 183, (2R,3R,4S,5S)-2-(4-Amino-5-(2-(pyrimidin-5-yl)ethyl)-7H-pyrrolo[2,3-d]pyrimidin-7-yl)-5-((((3-methyl-5-phenylisoxazol-4-yl)methyl)thio)methyl)tetrahydrofuran-3,4-diol] | 30 to 100 nM
26 | Nc1ncnc2c1ccn2[C@@H]1O[C@H](CSCc2c(-c3ccccc3)noc2-c2ccccc2)[C@@H](O)[C@H]1O [Compound 109c, (2R,3R,4S,5S)-2-(4-Amino-7H-pyrrolo[2,3-d]pyrimidin-7-yl)-5-((((3,5-diphenylisoxazol-4-yl)methyl)thio)methyl)tetrahydrofuran-3,4-diol] | 100 to 500 nM
